Experimental data: publication PMC5421785, “Citrullination only infrequently impacts peptide binding to HLA class II MHC” (PLoS ONE, 2017)
Where two headings read alike, the source gives them in different places. Square brackets hold non-standard residues; d marks the D form. Peptide text beside a SMILES is read from it. Cit = NC(=O)NCCC[C@H](N)C(=O)O

Key:
HLA-DRB1*01:01 = target: T1, HLA-DRB1*01:01 (Homo sapiens, UniProt P01903+P01911, A100R/D57E/F55L/F60I/F76Y/I96L/L162R/M171V/P40L/Q125E/R42F/V115G/Y59C); test: HLA class II peptide binding, inhibition of radiolabeled peptide binding to purified MHC
T1 construct: EBV transformed homozygous cell lines were used as sources of MHC molecules; endogenous in cells; host or cells: EBV transformed homozygous cell lines

HLA-DRB1*04:01 = target: T2, HLA-DRB1*04:01 (Homo sapiens, UniProt P01903+P01911, A100K/A169T/F76Y/I96L/K127E/L162R/M171V/N62H/P40V/Q125Y/R42H/S133A/S149N/S66Y/V115G/V209L/W38E); test: as above
T2 construct: EBV transformed homozygous cell lines were used as sources of MHC molecules; endogenous in cells; host or cells: EBV transformed homozygous cell lines

[1] = citrullinated 15-mer peptide (X = citrulline), purified HLA-DRB1*01:01, read-out: DRB1*01:01 binding capacity, Cit peptide (IC50 nM)
[2] = citrullinated 15-mer peptide (X = citrulline), purified HLA-DRB1*04:01, read-out: DRB1*04:01 binding capacity, Cit peptide (IC50 nM)
[3] = citrullinated peptide as listed (X at Cit position), read-out: DRB1*01:01 binding capacity Cit peptide (IC50 nM)
[4] = citrullinated peptide as listed (X at Cit position), read-out: DRB1*04:01 binding capacity Cit peptide (IC50 nM)
[5] = citrullinated 15-mer (X), purified MHC, inhibition of radiolabeled peptide binding, dash = IC50 >40,000 nM, read-out: DRB1*01:01 binding capacity, Cit peptide (IC50 nM)
[6] = citrullinated 15-mer (X), purified MHC, inhibition of radiolabeled peptide binding, dash = IC50 >40,000 nM, read-out: DRB1*04:01 binding capacity, Cit peptide (IC50 nM)

Row | Compound | IC50 (HLA-DRB1*01:01; [1]) [nM] | IC50 (HLA-DRB1*04:01; [2]) [nM] | IC50 (HLA-DRB1*01:01; [3]) [nM] | IC50 (HLA-DRB1*04:01; [4]) [nM] | further results
1 | CC(C)C[C@H](NC(=O)CNC(=O)[C@@H]1CCCN1C(=O)[C@H](C)NC(=O)CNC(=O)[C@@H]1CCCN1C(=O)[C@H](CC(C)C)NC(=O)CNC(=O)[C@H](CCCCN)NC(=O)[C@H](CCC(=O)O)NC(=O)CNC(=O)[C@H](C)NC(=O)[C@@H](N)CCCCN)C(=O)N[C@@H](CCCNC(N)=O)C(=O)NCC(=O)O [KAGEKGLPGAPGLXG] (H-KAGEKGLPGAPGL[Cit]G-OH) | 578 | > 40000 | – | – | –
2 | CSCC[C@H](NC(=O)[C@H](Cc1ccc(O)cc1)NC(=O)[C@H](CCC(N)=O)NC(=O)[C@H](CC(C)C)NC(=O)[C@@H]1CCCN1C(=O)[C@H](CC(=O)O)NC(=O)[C@@H]1CCCN1C(=O)CNC(=O)[C@@H](N)CCCCN)C(=O)N[C@@H](CCCNC(N)=O)C(=O)N[C@@H](C)C(=O)N[C@@H](CC(=O)O)C(=O)N[C@@H](CCC(N)=O)C(=O)N[C@@H](C)C(=O)N[C@@H](C)C(=O)O [KGPDPLQYMXADQAA] (H-KGPDPLQYM[Cit]ADQAA-OH) | – | – | 9.2 | 45 | –
3 | CC[C@H](C)[C@H](NC(=O)[C@H](CC(=O)O)NC(=O)[C@H](CCSC)NC(=O)[C@@H]1CCCN1C(=O)[C@H](C)NC(=O)[C@@H](NC(=O)[C@H](CC(=O)O)NC(=O)[C@@H](NC(=O)[C@@H](NC(=O)[C@@H]1CCCN1C(=O)[C@H](CC(C)C)NC(=O)[C@H](CCCNC(N)=O)NC(=O)[C@H](CO)NC(=O)[C@@H](NC(=O)[C@@H](N)CCCCN)[C@@H](C)O)[C@@H](C)CC)[C@@H](C)CC)[C@@H](C)CC)C(=O)O [KTSXLPIIDIAPMDI] (H-KTS[Cit]LPIIDIAPMDI-OH) | – | – | 634 | 7060 | IC50 (HLA-DRB1*01:01; value of the wild-type (non-citrullinated) counterpart of the listed peptide, read-out: DRB1*01:01 binding capacity WT peptide (IC50 nM)): 361 nM; IC50 (HLA-DRB1*04:01; value of the wild-type (non-citrullinated) counterpart of the listed peptide, read-out: DRB1*04:01 binding capacity WT peptide (IC50 nM)): 8750 nM
4 | CC[C@H](C)[C@H](NC(=O)CNC(=O)[C@H](CCCNC(=N)N)NC(=O)[C@H](CCC(N)=O)NC(=O)CNC(=O)[C@H](C)NC(=O)[C@@H](N)CC(C)C)C(=O)N[C@H](C(=O)NCC(=O)N[C@@H](CC(C)C)C(=O)N1CCC[C@H]1C(=O)NCC(=O)N[C@@H](CCC(N)=O)C(=O)N[C@@H](CCCNC(N)=O)C(=O)NCC(=O)O)C(C)C [LAGQRGIVGLPGQXG] (H-LAGQRGIVGLPGQ[Cit]G-OH) | 1.3 | 5040 | – | – | –
5 | CSCC[C@H](NC(=O)[C@H](CCC(=O)O)NC(=O)[C@H](CCC(=O)O)NC(=O)[C@H](CCC(=O)O)NC(=O)[C@H](Cc1ccc(O)cc1)NC(=O)[C@H](CC(C)C)NC(=O)[C@H](CC(=O)O)NC(=O)CNC(=O)[C@@H](N)CC(C)C)C(=O)N[C@@H](CCCNC(=N)N)C(=O)N[C@@H](CCC(=O)O)C(=O)N[C@@H](CC(C)C)C(=O)N[C@@H](CCCNC(=N)N)C(=O)N[C@@H](CCCNC(N)=O)C(=O)N[C@@H](CCC(N)=O)C(=O)O [LGDLYEEEMRELRXQ] | – | – | – | – | IC50 (HLA-DRB1*01:01; [5]): 14800 nM; IC50 (HLA-DRB1*04:01; [6]): > 40000 nM
6 | CSCC[C@H](NC(=O)[C@H](CCC(=O)O)NC(=O)[C@H](CCC(=O)O)NC(=O)[C@H](CCC(=O)O)NC(=O)[C@H](Cc1ccc(O)cc1)NC(=O)[C@H](CC(C)C)NC(=O)[C@H](CC(=O)O)NC(=O)CNC(=O)[C@@H](N)CC(C)C)C(=O)N[C@@H](CCCNC(=N)N)C(=O)N[C@@H](CCC(=O)O)C(=O)N[C@@H](CC(C)C)C(=O)N[C@@H](CCCNC(N)=O)C(=O)N[C@@H](CCCNC(=N)N)C(=O)N[C@@H](CCC(N)=O)C(=O)O [LGDLYEEEMRELXRQ] | – | – | – | – | IC50 (HLA-DRB1*01:01; [5]): 12500 nM; IC50 (HLA-DRB1*04:01; [6]): > 40000 nM

Second part, led by results:

Row | IC50 (HLA-DRB1*01:01; [1]) [nM] | IC50 (HLA-DRB1*04:01; [2]) [nM] | IC50 (HLA-DRB1*01:01; [3]) [nM] | IC50 (HLA-DRB1*04:01; [4]) [nM] | Compound | further results
7 | 13 | 10500 | – | – | CC[C@H](C)[C@H](NC(=O)CNC(=O)[C@H](CCCNC(N)=O)NC(=O)[C@H](CCC(N)=O)NC(=O)CNC(=O)[C@H](C)NC(=O)[C@@H](N)CC(C)C)C(=O)N[C@H](C(=O)NCC(=O)N[C@@H](CC(C)C)C(=O)N1CCC[C@H]1C(=O)NCC(=O)N[C@@H](CCC(N)=O)C(=O)N[C@@H](CCCNC(=N)N)C(=O)NCC(=O)O)C(C)C [LAGQXGIVGLPGQRG] (H-LAGQ[Cit]GIVGLPGQRG-OH) | –
8 | – | – | 54 | 17400 | CSCC[C@H](NC(=O)[C@H](CCC(N)=O)NC(=O)[C@@H](NC(=O)[C@H](CC(N)=O)NC(=O)[C@H](C)NC(=O)[C@@H](NC(=O)[C@H](CC(N)=O)NC(=O)[C@@H]1CCCN1C(=O)[C@H](C)NC(=O)[C@@H](N)CC(C)C)[C@@H](C)O)C(C)C)C(=O)N[C@H](C(=O)N[C@@H](Cc1ccccc1)C(=O)N[C@@H](CC(C)C)C(=O)N[C@@H](CCCNC(N)=O)C(=O)N[C@@H](CC(C)C)C(=O)O)[C@@H](C)O [LAPNTANVQMTFLXL] (H-LAPNTANVQMTFL[Cit]L-OH) | –
